Experimental data from US20220265591A1, “USE OF AN OSMOLYTE IN MANUFACTURE OF A MEDICAMENT FOR TREATMENT OF OCULAR DISORDERS” (SINGAPORE HEALTH SERVICES PTELTD, priority 2019, published 2022).
Entries after “also recorded” stand apart in the source; their conditions may differ. Like-named read-outs stand apart in the source and are kept apart here.

How the values were obtained:
[1] = target: T1, preformed amyloid fibrils from TGFBIp611-633 G623R peptide (Homo sapiens, UniProt Q15582, G623R); experiment: ThT fluorescence assay, dissolution of preformed amyloid fibrils; format: biochemical; conditions: for inhibition at 200000 µM: preformed fibrils, read-out: % Inhibition (mean ± SD) n = 3, dissolution of amyloid fibrils, ThT fluorescence; for % Dissolution at final time point, ThT: TGFBIp-G623R preformed fibrils
T1 construct: The 23-amino acid long peptide (TGFBIp 611-633 c.623 G>R) from the 4th FAS1 domain; purchased Synpeptide Co Ltd, Shanghai, China; host or cells: synthetic peptide
Experimental: The TGFBIp^611-633 G623R peptides were incubated in PBS for 24 hours, allowed to form uniform amyloid fibrils. The TGFBIp^611-633 G623R peptide solution was then subjected to Circular Dichroism spectroscopy to confirm the formation of amyloid fibrils.
The preformed amyloid fibril solution incubated with PBS was used as a control.
The peptide samples collected at the various time points above were treated with 30 μM ThT in PBS buffer at pH 5.5 in a 96-well microplate for ThT fluorescence assay. The microplate was excited at […] and the resulting emission fluorescence at 485 nm was measured using a microplate reader (Tecan Infinite M200 Pro, CA, USA).
The preformed amyloid fibrils were treated with taurine at a concentration of 200 mM and 320 mM for up to 72 hours, respectively. The preformed amyloid fibrils incubated with PBS were used as controls.
The samples were collected at 24 h, 48 h and 72 h after treatment for the TGFBIp^611-633 G623R peptides, and at 24 h, 48 h, 96 h and 144 h after treatment for the TGFBIp^611-633 N622K peptides. The samples were then treated with 30 μM ThT in PBS buffer at pH 5.5 in a 96-well microplate for ThT fluorescence assay. The microplate was excited at 445 nm and the resulting emission fluorescence at 485 nm was measured using a microplate reader.

[2] = target: T2, TGFBIp 611-633 c.623 G>R fibrils (Homo sapiens, UniProt Q15582, G623R); experiment: Transmission Electron Microscopy of preformed fibrils; conditions: 72 hours treatment
T2 construct: The 23-amino acid long peptide (TGFBIp 611-633 c.623 G>R) from the 4th FAS1 domain; purchased Synpeptide Co Ltd, Shanghai, China; host or cells: synthetic peptide
Experimental: The disaggregation of preformed amyloid fibrils was also verified by TEM analysis as illustrated in FIG. 8B. Morphological analysis of the TGFBIp 611-633 c.623 G>R fibrils before and after treatment with osmolytes for 72 hours was investigated by Transmission electron microscopy (TEM) with a JEOL JEM-1010 transmission electron microscope using Digital Micrograph™ 1.81.78 for GMS 1.8.0 (Gatan, Pleasanton, Calif.) at the Singhealth-core Electron Microscopy facility. 10 μl of amyloid fibril samples with and without osmolyte treatment were applied onto Formvar-carbon coated 300-mesh-size nickel grids. The samples were stained with Uranyl acetate solution, washed, dried, and observed at magnifications 8000-50000× at 80 kV.

[3] = target: T3, TGFBIp611-633 G623R peptide (Homo sapiens, UniProt Q15582, G623R); experiment: Circular Dichroism assay (θ[218]), inhibition of amyloid fibrillation; format: biochemical
T3 construct: The 23-amino acid long peptide (TGFBIp 611-633 c.623 G>R) from the 4th FAS1 domain; purchased Synpeptide Co Ltd, Shanghai, China; host or cells: synthetic peptide
Experimental: The peptide samples were collected 0.1 cm path length quartz cuvettes and examined in a Chirascan™-plus Spectropolarimeter (Applied Photophysics Limited, UK). Spectra were recorded from 260 nm to 190 nm in 0.1 nm steps at a scan rate of 50 nm/min. The final spectrum was the average of three scans as per the manufacturer's recommendation. The Mean Residual Weight (MRW) ellipticity ([θ]mrw values) at wavelength λ was calculated using the following equation (i): […]
whereby θλ is the observed ellipticity at a particular wavelength (degrees), I is the path length (cm), and c is the concentration (g/ml). Secondary structures of the protein were analyzed using CDNN software.
The θ[218] values that determine the β-sheet secondary structure were used to calculate the percentage inhibition in cross β-sheet in the untreated and osmolyte-treated peptide samples at various time points. Percentage inhibition for each osmolyte treatment per time point was calculated by normalizing the [θ]218 values of osmolyte treatment with the [θ]218 values of the untreated samples and expressed as a percentage.
Circular Dichroism (CD) spectroscopy was performed to study the changes in the secondary structure of the peptides. The TGFBIp^611-633 G623R peptides were treated with 200 mM and 320 mM of taurine in PBS buffer at pH 7.0 for 24 h, 48 h and 72 h, respectively. While the TGFBIp^611-633 N622K peptides were treated with 200 mM and 320 mM of taurine in PBS buffer at pH 7.0 for 72 h, 96 h, 120 h, 144 h, 192 h, 216 h, and 240 h, respectively. The treatment solutions were studied by far UV-CD assay.

[4] = 200 mM, 24 h, read-out: % Inhibition (mean ± SD) n = 3, θ[218] circular dichroism
[5] = 200 mM, 48 h, read-out: % Inhibition (mean ± SD) n = 3, θ[218] circular dichroism
[6] = 200 mM, 72 h, read-out: % Inhibition (mean ± SD) n = 3, θ[218] circular dichroism

T3 sequence (Q15582 611-633 G623R limits assumed): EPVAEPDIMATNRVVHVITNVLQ

Row | inhibition at 200000 µM ([1]; 200 mM, 24 h) | inhibition at 200000 µM ([1]; 200 mM, 48 h) | inhibition at 200000 µM ([1]; 200 mM, 72 h) | inhibition at 200000 µM [3, 4] | inhibition at 200000 µM [3, 5] | inhibition at 200000 µM [3, 6] | % Dissolution at final time point, ThT ([1]; 200 mM) | % Dissolution at final time point, ThT ([1]; 200 mM, listed as taurine) | % Dissolution at final time point, ThT ([1]; 320 mM) | % Dissolution at final time point, ThT ([1]; 320 mM, listed as taurine) | % Inhibition at final time point, CD ([3]; TGFBIp-G623R, 200 mM, final time point) | inhibition at 200000 µM ([3]; TGFBIp-G623R, 200 mM, final time point, read-out: % Inhibition at final time point, CD) | % Inhibition at final time point, CD ([3]; TGFBIp-G623R, 320 mM, final time point) | inhibition at 320000 µM ([3]; TGFBIp-G623R, 320 mM, final time point, read-out: % Inhibition at final time point, CD) | Compound | TEM morphology of fibrils [2] | inhibitory effect on fibrillation compared among the four osmolytes, CD ([3]; 200 mM)
1 | 4 ± 3% | 34 ± 11% | 37 ± 17% | 8% | 19% | 34% |  |  |  |  |  |  |  |  | C[N+](C)(C)CC(=O)O [Betaine, betaine] | reduction in density of ordered amyloid fibrils was evident | 
2 | 14 ± 4% | 48 ± 6% | 64% | 19% | 23% | 57% |  |  |  |  |  |  |  |  | OC[C@H]1O[C@H](OC[C@H]2O[C@H](O[C@]3(CO)O[C@H](CO)[C@@H](O)[C@@H]3O)[C@H](O)[C@@H](O)[C@@H]2O)[C@H](O)[C@@H](O)[C@H]1O [Raffinose, raffinose] | reduction in density of ordered amyloid fibrils was evident | maximum inhibition; also recorded: maximum inhibitory effect
3 | 24 ± 3% | 47 ± 4% | 53 ± 3% | ~17% | ~43% | ~57% |  |  |  |  |  |  |  |  | CNCC(=O)O [Sarcosine, sarcosine] | reduction in density of ordered amyloid fibrils was evident | maximum inhibition
4 | 23 ± 1% | 52 ± 5% | 61% | ~25% | ~54% | ~56% | 63% | 64% | 83% | 83% | 42% | 41% | 63% | 61% | NCCS(=O)(=O)O [Taurine, taurine] | reduction in density of ordered amyloid fibrils was evident | 
